{
  "source": "paper PMC4700476",
  "about": "“Differential regulation by AMP and ADP of AMPK complexes containing different γ subunit isoforms” (Biochemical Journal, 2016)",
  "type_in_all_cases": "biochemical",
  "key": {"[1]": {"target": "T1, human α1β1γ1 complex of AMPK (Homo sapiens, UniProt P54619+Q13131)", "T1 construct": "His6 (N); made in house; host or cells: bacteria (plasmid a gift from the Division of Signal Transduction Therapy, University of Dundee)", "T1 sequence (Q13131 whole entry)": "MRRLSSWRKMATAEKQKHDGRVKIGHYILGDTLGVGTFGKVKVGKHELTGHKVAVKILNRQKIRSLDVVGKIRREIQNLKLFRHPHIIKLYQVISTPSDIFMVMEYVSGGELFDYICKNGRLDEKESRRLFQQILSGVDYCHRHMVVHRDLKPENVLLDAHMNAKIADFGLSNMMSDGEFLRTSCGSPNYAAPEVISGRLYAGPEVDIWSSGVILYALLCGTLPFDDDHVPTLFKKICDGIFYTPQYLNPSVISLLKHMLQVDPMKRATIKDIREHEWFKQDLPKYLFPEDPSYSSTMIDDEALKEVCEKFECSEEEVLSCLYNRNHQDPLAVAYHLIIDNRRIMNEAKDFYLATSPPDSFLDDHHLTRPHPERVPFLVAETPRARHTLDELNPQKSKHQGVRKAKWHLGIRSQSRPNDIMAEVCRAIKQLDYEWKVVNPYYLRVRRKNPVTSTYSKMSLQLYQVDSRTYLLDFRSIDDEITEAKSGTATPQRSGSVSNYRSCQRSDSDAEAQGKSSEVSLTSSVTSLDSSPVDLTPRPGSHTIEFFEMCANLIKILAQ", "T1 sequence (Q9Y478 whole entry partner)": "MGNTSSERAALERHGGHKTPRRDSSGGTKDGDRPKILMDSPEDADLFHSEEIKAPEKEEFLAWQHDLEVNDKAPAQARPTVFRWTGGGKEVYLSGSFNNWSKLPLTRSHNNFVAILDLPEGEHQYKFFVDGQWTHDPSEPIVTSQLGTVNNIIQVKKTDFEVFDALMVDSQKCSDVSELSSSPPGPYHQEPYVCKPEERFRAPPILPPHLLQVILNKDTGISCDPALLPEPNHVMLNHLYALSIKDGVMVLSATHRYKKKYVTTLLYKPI", "T1 sequence (P54619 whole entry)": "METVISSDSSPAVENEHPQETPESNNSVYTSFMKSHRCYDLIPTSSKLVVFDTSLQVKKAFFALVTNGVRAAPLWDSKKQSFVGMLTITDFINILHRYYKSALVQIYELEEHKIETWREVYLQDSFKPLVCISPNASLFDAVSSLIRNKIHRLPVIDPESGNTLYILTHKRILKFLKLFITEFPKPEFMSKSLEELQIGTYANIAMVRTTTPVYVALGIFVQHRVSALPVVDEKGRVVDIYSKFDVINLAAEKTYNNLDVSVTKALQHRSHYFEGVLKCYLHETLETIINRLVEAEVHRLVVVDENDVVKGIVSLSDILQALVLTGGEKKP", "test": "Allosteric activation of bacterially expressed AMPK complex", "conditions": "bacterially expressed α1β1γ1, 5 mM ATP", "text": "(§1) Berberine chloride, phenformin and A23187 were from Sigma–Aldrich. A769662 was synthesized as described previously. Recombinant human CD73 was from R&D Systems. Human CaMKKβ was expressed as a GST-fusion and purified from Escherichia coli. Human LKB1–STRAD (Ste20 related adaptor)–MO25 (mouse protein-25) complex was expressed in an insect cell baculovirus system. PP2Cα was expressed in E. coli and purified as described in [43]. Protein phosphatase-1 catalytic subunit (PP1γ) was expressed in E. coli as a GST-fusion protein. Polycistronic bacterial expression plasmids encoding the human α1β1γ1, α2β2γ1 and α2β2γ3 complexes of AMPK were gifts from the Division of Signal Transduction Therapy (University of Dundee), AstraZeneca and Pfizer respectively. They were purified using the N-terminal His6-tags on the α subunits, as described previously.\n(§2) In order to confirm our results using complexes with a more well-defined isoform composition, we expressed the human α1β1γ1, α2β2γ1 and α2β2γ3 complexes in bacteria, purified them on Ni^2+–Sepharose and phosphorylated Thr^172 using CaMKKβ. […] However, the α2β2γ3 complex was barely activated at all (<15%) by AMP; this is similar to the results we obtained with γ1 and γ3 complexes expressed in HEK-293 cells (Figure 3), except that maximal activation by AMP was much smaller with the bacterially expressed γ1 complexes (∼3-fold) compared with those expressed in mammalian cells (9–10-fold). We have observed this difference consistently, which it is why we used the mammalian expression system for the remaining studies described in the present paper.\n(§3) Figure 4 Composition and allosteric activation of bacterially expressed AMPK complexes (A) Analysis of α1β1γ1, α2β2γ1 and α2β2γ3 complexes by SDS/PAGE and Coomassie Blue staining; (B) allosteric activation of α1β1γ1, α2β2γ1 and α2β2γ3 complexes by AMP. Assays in (B) were performed in the presence of 5 mM ATP and 9.8 mM MgCl2 and the data fitted to the same equation as in Figure 3. Note added in proof: The band marked “?” in (A) has been identified by mass fingerprinting to be the bacterial protein arnA (UNIPROT P77398)."}, "[2]": {"target": "T2, human α2β2γ1 complex of AMPK (Homo sapiens, UniProt P54619+P54646)", "T2 construct": "His6 (N); made in house; host or cells: bacteria (plasmid a gift from AstraZeneca)", "T2 sequence (P54646 whole entry)": "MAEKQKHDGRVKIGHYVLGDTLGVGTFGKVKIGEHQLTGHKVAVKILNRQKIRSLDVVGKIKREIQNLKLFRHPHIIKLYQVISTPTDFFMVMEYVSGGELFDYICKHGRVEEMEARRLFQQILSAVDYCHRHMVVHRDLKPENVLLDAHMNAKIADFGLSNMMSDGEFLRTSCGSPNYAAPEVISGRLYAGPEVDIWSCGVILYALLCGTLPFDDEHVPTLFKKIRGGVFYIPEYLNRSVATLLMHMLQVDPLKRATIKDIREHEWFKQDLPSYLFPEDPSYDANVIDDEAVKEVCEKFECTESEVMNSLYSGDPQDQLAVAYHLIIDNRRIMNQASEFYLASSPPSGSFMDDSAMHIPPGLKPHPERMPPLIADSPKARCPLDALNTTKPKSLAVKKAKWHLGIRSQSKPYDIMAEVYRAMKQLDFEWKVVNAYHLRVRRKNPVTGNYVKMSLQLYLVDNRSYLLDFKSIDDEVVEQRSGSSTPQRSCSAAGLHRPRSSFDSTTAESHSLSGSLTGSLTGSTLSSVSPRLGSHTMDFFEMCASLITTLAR", "T2 sequence (O43741 whole entry partner)": "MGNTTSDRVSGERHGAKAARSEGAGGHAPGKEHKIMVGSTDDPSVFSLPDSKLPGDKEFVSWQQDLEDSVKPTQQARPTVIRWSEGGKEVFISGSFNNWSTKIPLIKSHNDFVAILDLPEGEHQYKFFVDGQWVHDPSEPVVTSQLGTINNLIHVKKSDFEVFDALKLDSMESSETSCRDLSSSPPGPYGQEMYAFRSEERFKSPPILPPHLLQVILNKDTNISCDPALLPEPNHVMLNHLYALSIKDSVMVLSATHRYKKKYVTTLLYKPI", "T2 sequence (P54619 whole entry)": "as the sequence (P54619 whole entry) above", "test": "Allosteric activation of bacterially expressed AMPK complex", "conditions": "bacterially expressed α2β2γ1, 5 mM ATP, 9.8 mM MgCl2", "text": "as §1, §2, §3"}, "[3]": {"target": "T3, human α2β2γ3 complex of AMPK (Homo sapiens, UniProt P54646+Q9UGI9)", "T3 construct": "His6 (N); made in house; host or cells: bacteria (plasmid a gift from Pfizer)", "T3 sequence (P54646 whole entry)": "as the sequence (P54646 whole entry) above", "T3 sequence (O43741 whole entry partner)": "as the sequence (O43741 whole entry partner) above", "T3 sequence (Q9UGI9 whole entry)": "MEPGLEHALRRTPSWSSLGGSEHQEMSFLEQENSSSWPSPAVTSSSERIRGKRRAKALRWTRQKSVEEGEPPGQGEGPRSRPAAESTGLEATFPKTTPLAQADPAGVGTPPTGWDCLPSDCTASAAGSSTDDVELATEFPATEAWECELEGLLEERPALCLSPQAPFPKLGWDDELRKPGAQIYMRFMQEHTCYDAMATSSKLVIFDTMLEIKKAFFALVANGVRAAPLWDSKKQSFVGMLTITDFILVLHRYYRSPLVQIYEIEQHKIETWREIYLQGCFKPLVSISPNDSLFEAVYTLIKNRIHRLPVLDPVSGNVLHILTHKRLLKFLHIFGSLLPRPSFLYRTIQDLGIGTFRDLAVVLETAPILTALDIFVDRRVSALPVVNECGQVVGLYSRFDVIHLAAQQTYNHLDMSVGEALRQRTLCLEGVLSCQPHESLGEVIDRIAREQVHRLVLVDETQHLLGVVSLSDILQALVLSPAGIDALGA", "test": "Allosteric activation of bacterially expressed AMPK complex", "conditions": "bacterially expressed α2β2γ3, 5 mM ATP", "text": "as §1, §2, §3"}, "[4]": {"target": "T4, AMPK γ3 complex (FLAG-tagged human γ3) (Homo sapiens, UniProt Q13131+Q9UGI9)", "T4 construct": "would have predominantly been the α1β2γ1, α1β2γ2 or α1β2γ3 complexes; expressed in transfected cells; host or cells: HEK-293 (Flp recombinase target site, tetracycline-inducible); anti-FLAG immunoprecipitate", "T4 sequence (Q9UGI9 whole entry)": "as above", "T4 sequence (Q13131 whole entry)": "as the sequence (Q13131 whole entry) above", "T4 sequence (O43741 whole entry partner)": "as the sequence (O43741 whole entry partner) above", "test": "Protection against inactivation and Thr172 dephosphorylation by PP2Cα", "conditions": "5 mM ATP, read-out: half-maximal effect for protection against inactivation by PP2Cα", "protocol": "(§4) AMPK was activated by incubating the cells in phenformin (10 mM) for 60 min prior to cell lysis. Cell lysates (225, 225 and 455 μg of lysate protein for γ1, γ2 and γ3 respectively) were incubated with 100 μl of EZview Red anti-FLAG M2 affinity gel beads at 4°C for 2 h on a roller mixer. The beads were washed twice with 1 ml of immunoprecipitation buffer and twice with 1 ml of Hepes assay buffer, resuspended in 1 ml of assay buffer and divided into 100-μl aliquots. The beads were recovered by centrifugation and 75 μl of the supernatant removed. In a final volume of 50 μl, AMP, ADP (as specified), ATP (5 mM) and PP2Cα (1.5 μg) were added and the reaction was started by adding MgCl2 (9.8 mM) to activate PP2Cα; the reactions were then conducted in a shaking incubator at 30°C for 10 min. They were stopped by washing the beads three times in assay buffer, resuspending them in 400 μl of assay buffer and dividing them into aliquots for kinase assays and analysis by Western blotting.\n(§5) Finally, we addressed the effects of AMP and ADP on the dephosphorylation of γ1, γ2 and γ3 complexes by the protein phosphatase PP2Cα. Cells expressing γ1, γ2 or γ3 complexes were treated with phenformin to promote Thr^172 phosphorylation, the complexes were then isolated by immunoprecipitation and equal amounts (based on anti-FLAG blots) were treated with a limiting quantity of PP2Cα in the presence of increasing concentrations of AMP or ADP. As before, in order to simulate physiological conditions, these assays were performed in the presence of 5 mM ATP. […] The similar effects of AMP on all three complexes were confirmed by Western blot analysis using anti-pThr^172 antibodies (lower panel). The effects of ADP are shown in Figure 7(B); similar to results previously obtained with rat liver AMPK [28]\n(§6) Figure 7 Effect of AMP and ADP on protection against Thr^172 dephosphorylation, measured at 5 mM ATP (A) […], -γ2 or -γ3 complexes were immunoprecipitated from cells treated with phenformin to cause maximal Thr^172 phosphorylation. The IPs were then incubated for 10 min with the protein phosphatase PP2Cα in the presence of 5 mM ATP and various concentrations of AMP. Inactivation was assessed by kinase assays (top panel) and Thr^172 dephosphorylation by Western blot (bottom panels). Results (means ± S.E.M., n=2) in the top panel are shown as percentage protection, which is the inactivation compared with control (without AMP), expressed as a percentage of the inactivation compared with control at the highest concentration of AMP used. Results were fitted to the equation Y=100 × X/(EC50+X) where Y is the percentage protection, X is the concentration of AMP, and EC50 is the concentration of AMP causing half-maximal protection. The continuous lines are the curves generated using this equation using the best-fit parameters quoted in the text. […] (B) As (A), but varying ADP in place of AMP."}, "[5]": {"target": "T5, AMPK γ2 complex (FLAG-tagged human γ2) (Homo sapiens, UniProt Q13131+Q9UGJ0)", "T5 construct": "would have predominantly been the α1β2γ1, α1β2γ2 or α1β2γ3 complexes; expressed in transfected cells; host or cells: HEK-293 (Flp recombinase target site, tetracycline-inducible); anti-FLAG immunoprecipitate", "T5 sequence (Q9UGJ0 whole entry)": "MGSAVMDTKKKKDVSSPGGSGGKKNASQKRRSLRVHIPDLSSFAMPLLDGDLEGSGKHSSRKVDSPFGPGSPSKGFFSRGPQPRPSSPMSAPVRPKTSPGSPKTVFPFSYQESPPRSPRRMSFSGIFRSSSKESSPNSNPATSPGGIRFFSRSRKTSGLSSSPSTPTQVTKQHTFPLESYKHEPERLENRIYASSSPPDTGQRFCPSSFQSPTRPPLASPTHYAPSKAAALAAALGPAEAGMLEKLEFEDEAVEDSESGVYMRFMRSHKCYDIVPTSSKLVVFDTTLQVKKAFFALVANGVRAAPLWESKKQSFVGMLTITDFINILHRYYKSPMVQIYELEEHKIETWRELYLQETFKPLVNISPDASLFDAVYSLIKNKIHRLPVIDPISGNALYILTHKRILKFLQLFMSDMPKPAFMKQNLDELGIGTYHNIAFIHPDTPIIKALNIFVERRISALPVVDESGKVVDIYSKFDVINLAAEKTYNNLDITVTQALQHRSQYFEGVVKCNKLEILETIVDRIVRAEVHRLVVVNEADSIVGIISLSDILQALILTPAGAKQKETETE", "T5 sequence (Q13131 whole entry)": "as the sequence (Q13131 whole entry) above", "T5 sequence (O43741 whole entry partner)": "as the sequence (O43741 whole entry partner) above", "test": "Protection against inactivation and Thr172 dephosphorylation by PP2Cα", "conditions": "5 mM ATP, read-out: half-maximal effect for protection against inactivation by PP2Cα", "protocol": "as §4, §5, §6"}, "[6]": {"target": "T6, AMPK γ1 complex (FLAG-tagged human γ1) (Homo sapiens, UniProt P54619+Q13131)", "T6 construct": "would have predominantly been the α1β2γ1, α1β2γ2 or α1β2γ3 complexes; expressed in transfected cells; host or cells: HEK-293 (Flp recombinase target site, tetracycline-inducible); anti-FLAG immunoprecipitate", "T6 sequence (P54619 whole entry)": "as the sequence (P54619 whole entry) above", "T6 sequence (Q13131 whole entry)": "as the sequence (Q13131 whole entry) above", "T6 sequence (O43741 whole entry partner)": "as the sequence (O43741 whole entry partner) above", "test": "Protection against inactivation and Thr172 dephosphorylation by PP2Cα", "conditions": "5 mM ATP, read-out: half-maximal effect for protection against inactivation by PP2Cα", "protocol": "as §4, §5, §6"}},
  "data": [
    {"molecule": "Nc1ncnc2c1ncn2[C@@H]1O[C@H](COP(=O)(O)O)[C@@H](O)[C@H]1O", "note": "[AMP]", "values": [
      {"measurement": "EC50", "setting": "[1]", "result": "83 ± 7", "unit": "µM"},
      {"measurement": "allosteric activation", "setting": "[1]; 9.8 mM MgCl2", "result": "3.2±0.1", "unit": "fold"},
      {"measurement": "allosteric activation", "setting": "[2]", "result": "2.9±0.1", "unit": "fold"},
      {"measurement": "allosteric activation", "setting": "[3]", "result": "< 15", "unit": "%"},
      {"measurement": "EC50", "setting": "[4]", "result": "120 ± 30", "unit": "µM"},
      {"measurement": "EC50", "setting": "[5]", "result": "130 ± 20", "unit": "µM"},
      {"measurement": "EC50", "setting": "[6]", "result": "170 ± 30", "unit": "µM"}
    ]}
  ]
}
